Results on 14 compounds are retold here after US4623662A, “Antiatherosclerotic ureas and thioureas” (American Cyanamid Company, priority 1985, dated 1986).

Where two headings read alike, the source gives them in different places.

The subject of this assay is cholesterol absorption. Nature of the assay: Inhibition of cholesterol absorption in rats fed 1% cholesterol:0.5% cholic acid diet. The format is in vivo, male Sprague-Dawley rats. The settings on record: po, 336 h, rat, 2 weeks; for response vs control in vivo at 0.03 %: dose .03% of the diet; for response vs control in vivo at 0.003 %: dose .003% of the diet; for response vs control in vivo at 0.001 %: dose .001% of the diet; for response vs control in vivo at 0.01 %: dose .01% of the diet. How it is done: Inhibition of cholesterol absorption was determined by feeding male Sprague-Dawley rats, weighing 150-170 g, a 1% cholesterol:0.5% cholic acid diet for 2 weeks. The diet also contained compounds being tested at a dose of 0.001, 0.003, 0.01, or 0.03% of the diet. Control rats were fed the same diet without any compound. At the end of the test, the rats were sacrificed by decapitation. Blood was collected, centrifuged at […] for 10 minutes at 4° C.; and the serum was then analyzed for cholesterol and triglycerides enzymatically by the method of Trinder, P., Analyst, 77, 321 (1952) on a Centrifichem 400 analyzer. Livers were removed, a 0.4 g sample was taken from the center of the large lobe, and the sample was subjected to saponification using 25% saturated potassium hydroxide in ethanol. The resulting neutral sterols were extracted with petroleum ether and the extract analyzed for cholesterol. The effectiveness of the compound in inhibiting cholesterol absorption was measured by the lowering of either serum cholesterol or liver cholesterol relative the values for control rats.
Compounds which produced statistically significant inhibition of cholesterol absorption are considered to be active. Liver sterol (LS) and serum sterol (SS) values are expressed as a percentage of control values.

Where [1] appears, read: read-out: LS (liver sterol), percentage of control values.
Setting [2] is: read-out: SS (serum sterol), percentage of control values.

Turning to `CCCCCCOc1ccc(CN(CCCC)C(=O)Nc2c(C)cc(C)cc2C)cc1` [1-(n-Butyl)-1-(4-hexyloxybenzyl)-3-(2,4-trimethylphenyl)urea], the response vs control in vivo at 0.03 % is, setting by setting: under setting [1], 15%; under setting [2], 54%.

For the compound `CCCCCCCN(Cc1ccc(CC(C)(C)C)cc1)C(=O)Nc1c(F)cc(F)cc1F` [1-(n-Heptyl)-1-[4-(2,2-dimethylpropyl)phenylmethyl]-3-(2,4,6-trifluorophenyl)urea], the response vs control in vivo at 0.003 % was determined as 55% under setting [1] and 38% under setting [2].

For the compound `CCCCCCCN(Cc1ccc(C2CCCC2)cc1)C(=O)Nc1c(F)cc(F)cc1F` [1-(n-Heptyl)-1-[4-(cyclopentyl)benzyl]-3-(2,4,6-trifluorophenyl)urea], the response vs control in vivo at 0.001 % was 58% under setting [1] and 69% under setting [2].

For `CCCCCCCN(Cc1ccc(CC(C)CC)cc1)C(=O)Nc1c(F)cc(F)cc1F` (stereo not shown) [1-(n-Heptyl)-1-[4-(2-methylbutyl)benzyl]-3-(2,4,6-trifluorophenyl)urea], the response vs control in vivo at 0.001 % runs as follows: under setting [1], 64%; under setting [2], 76%.

Consider `CCCCCCCN(Cc1ccc(C2CCCC2)cc1)C(=O)Nc1ccc(F)cc1F` [1-(n-Heptyl)-1-[4-(cyclopentyl)benzyl]-3-(2,4-difluorophenyl)urea], for which the response vs control in vivo at 0.003 % under setting [1] worked out at 82% and the response vs control in vivo at 0.003 % under setting [2] worked out at 80%.

In the case of `CCCCCCCN(Cc1ccc(C(C)CCCC(C)C)cc1)C(=O)Nc1ccc(F)cc1F` (stereo not shown) [1-(n-Heptyl)-1-[4-(1,5-dimethylhexyl)benzyl]-3-(2,4-difluorophenyl)urea], the response vs control in vivo at 0.001 % runs as follows: under setting [1], 88%; under setting [2], 83%.

Consider `CCCCCCCN(Cc1ccc(CC(CC)CCCC)cc1)C(=O)Nc1c(C)cc(Cl)cc1C` (stereo not shown) [1-(n-Heptyl)-1-[4-(2-ethylhexyl)benzyl]-3-(4-chloro-2,6-dimethylphenyl)urea], for which the response vs control in vivo at 0.001 % was 87% under setting [1] and 83% under setting [2].

For the compound `CCCCCCCN(Cc1ccc(CC2CCC2)cc1)C(=O)Nc1c(C)cc(Cl)cc1C` [1-(n-Heptyl)-1-[4-(cyclobutylmethyl)benzyl]-3-(4-chloro-2,6-dimethylphenyl)urea], the response vs control in vivo at 0.001 % came to 69% under setting [1] and 64% under setting [2].

As to `CCCCCCCN(Cc1ccc(CC2CCC2)cc1)C(=O)Nc1c(F)cc(F)cc1F` [1-(n-Heptyl)-1-[4-(cyclobutylmethyl)benzyl]-3-(2,4,6-trifluorophenyl)urea], the response vs control in vivo at 0.001 % runs as follows: under setting [1], 66%; under setting [2], 62%.

For `CCCCCCCN(Cc1ccc(CC(CC)CC)cc1)C(=O)Nc1ccc(F)cc1F` [1-(n-Heptyl)-1-[4-(2-ethylbutyl)benzyl]-3-(2,4-difluorophenyl)urea], the response vs control in vivo at 0.003 % under setting [1] was determined as 98% and the response vs control in vivo at 0.003 % under setting [2] came to 66%.

`CCCCCCCN(Cc1ccc(CC(C)C(C)CC)cc1)C(=O)Nc1c(F)cc(F)cc1F` (stereo not shown) [1-(n-Heptyl)-1-[4-(2,3-dimethylpentyl)benzyl]-3-(2,4,6-trifluorophenyl)urea]: the response vs control in vivo at 0.01 % is 31% under setting [1] and 33% under setting [2].

On to `CCCCCCCN(Cc1ccc(OCCC(C)C)cc1)C(=O)Nc1ccc(F)cc1F` [1-(n-Heptyl)-1-[4-(3-methylbutoxy)benzyl]-3-(2,4-difluorophenyl)urea], for which the response vs control in vivo at 0.01 % by setting is: under setting [1], 32%; under setting [2], 27%.

Take `CCCCCCCN(Cc1ccc(C2CCCC2)cc1)C(=O)Nc1c(Cl)cc(Cl)cc1Cl` [1-(n-Heptyl)-1-[4-(cyclopentyl)benzyl]-3-(4-chloro-2,6-dichlorophenyl)urea]: the response vs control in vivo at 0.003 % amounted to 36% under setting [1] and 35% under setting [2].

As to `CCCCCCCN(Cc1ccc(CC(C)(C)C)cc1)C(=O)Nc1ccc(F)cc1F` [1-(n-Heptyl)-1-[4-(2,2-dimethylpropyl)phenylmethyl]-3-(2,4-difluorophenyl)urea], the response vs control in vivo at 0.01 % stood at 51% under setting [1] and 22% under setting [2].
